# Measurements taken from patent US20230140200A1, “COMPOSITIONS AND METHODS FOR DETECTING CELLS UNDERGOING FERROPTOSIS USING AN ANTIBODY” (THE TRUSTEES OF COLUMBIA UNIVERSITY IN THE CITY OF NEW YORK, priority 2020, published 2023).
# Columns and labels:
# [1] = test system: HT-1080 cells; assay: Immunofluorescence staining of treated cells, quantification of membrane intensity; assay type: cell-based, human; conditions: 8 h
# [2] = test system: HT-1080 cells; assay: Nuclear shrinkage by immunofluorescence (DAPI nuclei, CellProfiler); assay type: cell-based, human; conditions: vs DMSO
# [3] = test system: HT-1080 cells; assay: Machine-learning training image set, TfR1 membrane fluorescence intensity; assay type: cell-based, human; conditions: fixed at 10-20% cell death
# Experimental: Immunofluorescence (IF). HT-1080 cells were treated with 1 μM RSL3, 20 μM IKE, or 1 μM STS on poly-lysine-coated coverslips (Sigma Aldrich P4832) in 24-well plates. […] The cells were fixed and permeabilized with 4% PFA in PBS with 0.1% Triton X-100 (PBT), with 200 μL per well. The plates were covered with foil, and the cells were incubated and shaken at room temperature for 15-20 min. The PFA was disposed of safely, and the cells were washed with PBT three times. The cells were blocked with 5% normal goat serum (NGS) (ThermoFisher 50197Z) in PBT for 1 h at room temperature. The cells were then incubated with mouse 3F3 anti-Ferroptotic Membrane Antibody (3F3-FMA) at 1:500 dilution in PBT with 1% bovine serum albumin (BSA) and 5% NGS at 4° C. overnight. The cells were washed with PBT for 5 min three times. The cells were then incubated with goat anti-mouse IgG (H+L) Highly Cross-Adsorbed Secondary Antibody, Alexa Fluor 594 (Thermo Fisher Scientific Cat #A-11032, RRID:AB_2534091) at 1:200 dilution and FITC-phalloidin at 1:1000 dilution in PBT with 1% BSA for 1 h at room temperature. […]
# Automated image analysis. […] Nuclei were detected via the DAPI signal. […] In a next step, morphology/symmetry features, texture (SER features) and intensity properties of the DAPI, FITC and red channel were calculated for each cell region (nuclei, cytoplasm, and membrane). […]
# [4] = test system: TfR1 mRNA; assay: qPCR of TfR1 transcripts; assay type: cell-based, human; conditions: 8 h, HT-1080 cells
# Experimental: HT-1080 cells were seeded in 6-well plates at a density of 400 k cells/well and incubated overnight. The following day, IKE or RSL3 were diluted into wells from stock solutions and treated for indicated time periods. Following treatment, cells were rinsed in cold PBS, trypsinized, and pelleted in Eppendorf tubes. RNA was isolated from cell pellets using Qiagen's RNeasy extraction kit, following manufacturer's instructions (Qiagen). RNA quantity and quality was evaluated by a nanodrop spectrophotometer (Thermo Fisher Scientific). cDNA was generated from 2 μg of total RNA, which was then diluted ten-fold and used as a template in qPCR reactions on a Viia7 Real-Time system. Gene specific primers were used as follows: TfR1 FW: 5′ […] 3′ (SEQ ID No: 18); TFR1 RV: 5′ […] 3′ (SEQ ID No: 19); GAPDH FW: 5′ […] 3′ (SEQ ID No: 20); GAPDH RV: 5′ […] 3′ (SEQ ID No: 21).
# [5] = test system: HT-1080 cells; assay: Cell death after RSL3 incubation; assay type: cell-based, human; conditions: 1 μM, 4 h incubation
# [6] = test system: HT-1080 cells; assay: High-content analysis of nucleus area; assay type: cell-based, human; conditions: RSL3 group vs DMSO group
# Experimental: For the screening with five technical replicates, HT-1080 cells were washed with PBS, trypsinized and resuspended in cell culture medium. The cell suspension (2,000 cells in 50 μl per well) was dispensed into collagen (Sigma-Aldrich, St. Louis, Mass., USA) pre-coated 384-well plates (PerkinElmer 384-well CellCarrierUltra™). 24 h after seeding, medium was exchanged to medium containing 0.3 μM RSL3 (1 mM stock solution) dissolved in 100% dimethyl sulfoxide (DMSO) or DMSO alone. 50 μl medium with 0.3 μM RSL3/DMSO was added per well. The cells were then incubated (37° C.; 5% CO2) for 2.5 h prior to fixation and antibody staining. […] Finally, plates were recorded using the automated Operetta® microscope with the 20× high NA objective for high-resolution images (PerkinElmer, USA). For quantification, three images of each condition were recorded using three channels (Hoechst, Alexa488, TRITC). […] Quantification on cell number, cytoplasmic intensity, nucleus intensity and spot number per cell was performed using the Columbus Software (PerkinElmer, USA).
# Multiparametric image analysis was performed using Columbus Software 2.8.0 (PerkinElmer). […] In a next step we have calculated the morphology and Alexa488 fluorescence intensity in each cell region (nucleus and cytoplasm). […] Each spot was detected as a small region within the corresponding image by having a higher intensity than its surrounding area. […]
# [7] = test system: OCI-LY7 cells; assay: C11-BODIPY lipid ROS flow cytometry; assay type: cell-based; conditions: 5 μM PE, 19 h at 37° C.
# Experimental: 6 L of media (1% Pen-Strep 10% FBS and 89% RPMI with L-glutamine) containing 400 million OCI-LY7 (DSMZ Cat #ACC-688, RRID:CVCL_1881) cells/L were treated with 5 μM PE (piperazine erastin). Cells were incubated for 19 h at 37° C., then production of lipid ROS was confirmed using BODIPY-C11 by flow cytometry. Ferroptotic cells were pelleted in centrifuge at 1000 rpm for 10 min at 25° C. Cells were resuspended in 1 mL lysis buffer with a pan-protease inhibitor, lysed using a dounce homogenizer. 70% cell lysis was confirmed by microscope. Pellet containing the nuclear fraction and unlysed cells was obtained by centrifuge at 700×g for 10 min at 4° C. Supernatant was spun at 700×g for 10 min at 4° C. Supernatant was then transferred to a new tube and placed in centrifuge at 10,000×g for 45 min at 4° C. Pellet consisting of total membrane was resuspended in upper phase solution. Lower phase was added and mixture was incubated on ice for 5 min. Mixture was spun at 1000×g for 5 min at 4° C. […]
# Cells were resuspended in […] HBSS containing 2 μM C11-BODIPY (BODIPY 581/591 C11) (Thermo Fisher Scientific, D3861) and incubated at 37° C. for 15 min. […] Fluorescence intensity was measured on the FL1 channel with gating to record live cells only (gate constructed from DMSO treatment group). A minimum of 10,000 cells were analyzed per condition. […]
compound,measurement,setting,value
"CC1(CCO)CC2(CCC(C(C)(C)C)CC2)OO1 (stereo not drawn) [FINO2, ferroptosis inducer endoperoxide, reference compound]",change of 3F3-FMA staining pattern caused by inducer,[1]; 15 μM,same changes of 3F3-FMA pattern were observed
same,nuclei shrank (mean nucleus area),"[2]; 15 μM, 8 h incubation",49%
"O=S(=O)(NC1CCCCC1)c1ccc2c(c1)C(=NO)c1cc(S(=O)(=O)NC3CCCCC3)ccc1-2 [FIN56, ferroptosis inducer 56, reference compound]",change of 3F3-FMA staining pattern caused by inducer,[1]; 10 μM,same changes of 3F3-FMA pattern were observed
same,nuclei shrank (mean nucleus area),"[2]; 10 μM, 8 h incubation",17%
"CC(C)(C)OO [tBuOOH, reference compound]",change of 3F3-FMA staining pattern caused by inducer,[1]; 100 μM,same changes of 3F3-FMA pattern were observed
"CC(C)Oc1ccc(C(=O)Cn2ccnc2)cc1-n1c(CN2CCN(C(=O)COc3ccc(Cl)cc3)CC2)nc2ccccc2c1=O [IKE, imidazole ketone erastin]",TfR1 membrane fluorescence intensity after treatment,[3]; 20 μM,significant increase
same,level of TfR1 mRNAs,[4]; 10 μM,didn't increase
same,change of 3F3-FMA staining pattern caused by inducer,[1]; 10 μM,same changes of 3F3-FMA pattern were observed
same,nuclei shrank (mean nucleus area),"[2]; 10 μM, 8 h incubation",12%
"COC(=O)c1ccc([C@@H]2c3[nH]c4ccccc4c3C[C@@H](C(=O)OC)N2C(=O)CCl)cc1 [RSL3, (1S, 3R)-RSL3]",TfR1 membrane fluorescence intensity after treatment,[3]; 1 μM,significant increase
same,level of TfR1 mRNAs,[4]; 1 μM,didn't increase
same,nuclei shrank (mean nucleus area),"[2]; 1 μM, 4 h incubation",27%
same,HT-1080 cells died,[5],30%
same,decrease of average nucleus area,[6],17%
"CC(C)Oc1ccc(CN2CCNCC2)cc1-n1c(CN2CCN(C(=O)COc3ccc(Cl)cc3)CC2)nc2ccccc2c1=O [PE, piperazine erastin]",lipid peroxides (C11-BODIPY fluorescence),[7],increase in lipid peroxides
